Experimental data published in patent US6773912B1, “Lantibiotic” (University of Otago, priority 1999, dated 2004).

Assays:
Format in all cases: cell-based
[1] = system: Streptococcus pyogenes strain FF22; test: Decrease in colony-forming units after mixing cells with salivaricin preparation; details: partially purified preparation of titre 16; 4 h at 37° C.; exponential Todd Hewitt broth culture cells
Method: The inhibitory activity of the salivaricins was determined by measurement of the decrease with time in the number of colony-forming units (CFU) of a suspension of the sensitive indicator streptococcus (Streptococcus pyogenes strain FF22) after mixing the cells with a salivaricin preparation. Twice-washed cells from an exponential Todd Hewitt broth culture of the indicator streptococcus were resuspended in 0.067 M phosphate buffer (pH 6.5) to the original culture volume. Portions of partially purified salivaricin (titre 16 Au/ml) or of phosphate buffer (control) were then mixed with an equal volume of the washed cell suspension and incubation was continued at 37° C. Survivors were determined at intervals by plating suitable 10-fold dilutions (in cold Todd Hewitt broth) of the test and control mixtures on Columbia agar base and incubating at 37° C. for 24 h. Viable counts were expressed as the total number of CFU per ml.

Branhamella catarrhalis = test: Agar surface assay, inhibitory spectrum; details: 1 tested; 20 ul drops of preparation of titre 16 Ua/ml; 37° C. for 18 h
Method: (§1) Salivaricin activity is titrated using an agar surface assay. Drops (20 ul) of two-fold saline dilutions of the sample are assayed against Microoccus luteus T-18 on Columbia agar base. The reciprocal of the highest dilution to produce a definite zone of inhibition of the growth of the indicator lawn is the titre in arbitrary units per ml (Au/ml) of salivaricin activity.
(§2) By contrast the partially purified preparation of salivaricin A2 of titre 16 when tested using under the same conditions killed less than 10% of strain FF22 cells. Further tests of the inhibitory spectra of partially purified salivaricin A2 and salivaricin B preparations were done by using the agar surface assay described above. Drops (20 ul) of a preparation of titre 16 Ua/ml were spotted onto lawn cultures of the test strains that had been freshly inoculated by swabbing the surface of a Columbia agar base plate with a 1/100 dilution in saline of an 18 h Todd Hewitt broth culture of that strain. Production of a definite zone of inhibited test strain growth upon incubation of these plates at 37° C. for 18 h was taken to indicate sensitivity of that strain to the salivaricin.

[2] = system: Corynebacterium diphtheriae; test: Agar surface assay, inhibitory spectrum; details: 4 tested; 20 ul drops of preparation of titre 16 Ua/ml; 37° C. for 18 h
Method: as §1, §2

Escherichia coli = test: Agar surface assay, inhibitory spectrum; details: 2 tested; 20 ul drops of preparation of titre 16 Ua/ml; 37° C. for 18 h
Method: as §1, §2

Lactobactillus casei = test: Agar surface assay, inhibitory spectrum; details: 2 tested; 20 ul drops of preparation of titre 16 Ua/ml; 37° C. for 18 h
Method: as §1, §2

Staphylococcus aureus = test: Agar surface assay, inhibitory spectrum; details: 4 tested; 20 ul drops of preparation of titre 16 Ua/ml; 37° C. for 18 h
Method: as §1, §2

[3] = system: Stomatococcus mucilagenosus; test: Agar surface assay, inhibitory spectrum; details: 4 tested; 20 ul drops of preparation of titre 16 Ua/ml; 37° C. for 18 h
Method: as §1, §2

Streptococcus agalactiae = test: Agar surface assay, inhibitory spectrum; details: 5 tested; 20 ul drops of preparation of titre 16 Ua/ml; 37° C. for 18 h
Method: as §1, §2

[4] = system: Streptococcus equisimilis; test: Agar surface assay, inhibitory spectrum; details: 5 tested; 20 ul drops of preparation of titre 16 Ua/ml; 37° C. for 18 h
Method: as §1, §2

Streptococcus mutans = test: Agar surface assay, inhibitory spectrum; details: 6 tested; 20 ul drops of preparation of titre 16 Ua/ml; 37° C. for 18 h
Method: as §1, §2

Streptococcus pneumoniae = test: Agar surface assay, inhibitory spectrum; details: 4 tested; 20 ul drops of preparation of titre 16 Ua/ml; 37° C. for 18 h
Method: as §1, §2

Streptococcus pyogenes = test: Agar surface assay, inhibitory spectrum; details: 15 tested; 20 ul drops of preparation of titre 16 Ua/ml; 37° C. for 18 h
Method: as §1, §2

Streptococcus sanguis = test: Agar surface assay, inhibitory spectrum; details: 6 tested; 20 ul drops of preparation of titre 16 Ua/ml; 37° C. for 18 h
Method: as §1, §2

Streptococcus sobrinus = test: Agar surface assay, inhibitory spectrum; details: 4 tested; 20 ul drops of preparation of titre 16 Ua/ml; 37° C. for 18 h
Method: as §1, §2

## salivaricin A2: BLIS co-expressed by S. salivarius K12 and K30, related but not identical to salivaricin A; sequence in FIG. 3 (KRGTGWFATITDDCPNSVFVCC; listed as Streptococcus salivarius)
[1]
  CFU killed: less than 10%
Branhamella catarrhalis
  Number of strains sensitive: 0
[2]
  Number of strains sensitive: 0
Escherichia coli
  Number of strains sensitive: 0
Lactobactillus casei
  Number of strains sensitive: 1
Staphylococcus aureus
  Number of strains sensitive: 0
[3]
  Number of strains sensitive: 0
Streptococcus agalactiae
  Number of strains sensitive: 0
[4]
  Number of strains sensitive: 5
Streptococcus mutans
  Number of strains sensitive: 0
Streptococcus pneumoniae
  Number of strains sensitive: 1
Streptococcus pyogenes
  Number of strains sensitive: 15
Streptococcus sanguis
  Number of strains sensitive: 0
Streptococcus sobrinus
  Number of strains sensitive: 0
